Experimental data from PubChem BioAssay (NCI).
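48-hour exposure; five concentrations; linearly interpolated endpoints. Here, GI50 denotes the concentration required for 50% inhibition of growth. TGI: concentration producing complete growth inhibition.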

Columns and labels:
Assay in all cases: growth of human tumour cells (NCI), 48 h
HCC-2998 colon = tested on: HCC-2998 colon
MDA-MB-231 breast = tested on: MDA-MB-231 breast
M14 melanoma = tested on: M14 melanoma
SNB-19 CNS = tested on: SNB-19 CNS
OVCAR-8 ovarian = tested on: OVCAR-8 ovarian
HCT-15 colon = tested on: HCT-15 colon
T-47D breast = tested on: T-47D breast
U251 CNS = tested on: U251 CNS
RXF 393 renal = tested on: RXF 393 renal
UACC-257 melanoma = tested on: UACC-257 melanoma

| Compound | GI50 (HCC-2998 colon) [nM] | TGI (HCC-2998 colon) [µM] | GI50 (MDA-MB-231 breast) [µM] | TGI (MDA-MB-231 breast) [µM] | GI50 (M14 melanoma) [nM] | TGI (M14 melanoma) [µM] | GI50 (SNB-19 CNS) [nM] | TGI (SNB-19 CNS) [µM] | GI50 (OVCAR-8 ovarian) [µM] | TGI (OVCAR-8 ovarian) [µM] | GI50 (HCT-15 colon) [nM] | TGI (HCT-15 colon) [µM] | GI50 (T-47D breast) [nM] | TGI (T-47D breast) [µM] | GI50 (U251 CNS) [µM] | TGI (U251 CNS) [µM] | GI50 (RXF 393 renal) [nM] | TGI (RXF 393 renal) [µM] | GI50 (UACC-257 melanoma) [µM] | TGI (UACC-257 melanoma) [µM] |
| --- | --- | --- | --- | --- | --- | --- | --- | --- | --- | --- | --- | --- | --- | --- | --- | --- | --- | --- | --- | --- |
| COc1ccc(-c2c3c(N)nc(-c4ccncc4)nc3nc3c2c(C)nn3-c2ccccc2)cc1 | > 100000 | > 100 | 3.71 | 46.5 | 17500 | > 100 | 65100 | > 100 | 7.11 | > 100 | > 100000 | > 100 | 3960 | > 100 | 3.6 | 19 | 2720 | 20.6 | 79.9 | > 100 |
| O=C1/C(=C\c2c[nH]c3ccccc23)c2ccccc2N1c1c(Cl)cccc1Cl | 1700 | 3.12 | 1.59 | 3.21 |  |  | 2770 | 13.5 | 3.26 | 11.2 | 1160 | 2.92 | 2010 | 5.62 | 1.58 | 3.68 | 2020 | 3.92 | 2.34 | 4.61 |
| CCCC(C)c1cc(Cc2cc(Cl)cc(Cl)c2O)c(O)c(Cc2cc(Cl)cc(Cl)c2O)c1 (configuration not stated) | 1420 | 10.5 | 1.24 | 4.19 | 1630 | 7.46 |  |  | 0.737 | 14.6 | 336 | 2.44 | 809 | 6.77 | 0.839 | 11.1 | 1340 | 8.27 | 1.84 | 6.1 |
| COc1ccc(-c2csc(N(C(=O)N3CCN(c4cc5c(cc4F)c(=O)c(C(=O)O)cn5C4CC4)CC3)c3ccccc3)n2)cc1 | 4130 | > 100 | 2.44 | 8.13 | 3700 | > 100 | 1110 | > 100 | 2.82 | > 100 | 3190 | > 100 | 2650 | 40.7 | 0.973 | > 34.3 | 789 | 14.8 | 2.35 | 6.71 |
| CCCCCCCCCCC(C(=O)O)C1(C(=O)O)CCC(=O)O1 (configuration not stated) |  | > 100 |  | > 100 |  | > 100 |  | > 100 |  | > 100 |  | > 100 |  | > 100 |  | > 100 |  | > 100 |  | > 100 |
| CN1CCC(n2cnc(-c3ccc(F)cc3)c2-c2ccnc(NCCO)n2)CC1 | > 25000 | > 25 | > 25 | > 25 | > 25000 | > 25 | > 25000 | > 25 | 18.4 | > 25 | 20700 | > 25 | > 25000 | > 25 | 12.7 | > 25 | > 25000 | > 25 | > 25 | > 25 |
| COc1cc(/C=C/c2cc(O)c3cc(C(C)=O)c(=O)oc3c2)cc2c1O[C@]1(C)CC[C@@H](O)C(C)(C)[C@H]1C2 | > 28200 | > 48.7 | > 26.7 | > 92.3 |  | > 20.2 | > 21900 | > 95.4 | > 28.2 | > 95.1 |  | > 31.8 | > 23800 | > 53.9 |  | > 81.4 |  |  |  | > 30.5 |
| CCCC(=O)OC1C(C(O)CO)OC2OC(C)(C)OC21 (configuration not stated) |  | > 100 |  | > 100 |  | > 100 |  | > 100 |  | > 100 |  | > 100 |  | > 100 |  | > 100 |  | > 100 |  | > 100 |
| O=C(NCCO)Nc1ccc(-c2nc(N3CCOCC3)c3cccn3n2)cc1 | 488 | > 100 | 0.172 | 14.6 | 189 | > 65.5 | 2140 | > 100 | 0.257 | 21.1 | 359 | > 100 | < 21.2 | 0.125 | 1.01 | > 95.1 | 68.6 | 1.39 | 0.149 | 4.29 |
| COc1cccc(-n2ncc3c(N/N=C/c4ccc(C(=O)NCCN(C)C)cc4)ncnc32)c1 | 4660 | 8.58 | 3.4 | 7.23 | 1800 | 5.55 | 5070 | 9.75 | 4.19 | 9.27 | 2850 | 6.83 | > 22600 | > 25 | 3.25 | 6.77 | 496 | 3.53 | 3.72 | 7.44 |
| COc1cc2c(c(OC)c1)C1c3ccccc3NC(=O)N1CC2 (configuration not stated) | 3310 | > 100 | 3.98 | > 100 | 1970 | 21.4 | 7000 | > 100 | 5.01 | > 100 | 3140 | > 100 | 5590 | > 100 | 4.38 | > 100 | 2380 | 5.6 | 51 | > 100 |
| OC(c1cc(-c2ccccc2)nc2ccc(Cl)cc12)C1CCCCN1 (configuration not stated) | 1830 | 3.34 | 1.78 | 3.94 | 1870 | 3.54 | 1990 | 4.2 | 2.55 | 6.38 | 1840 | 3.53 | 2510 | 5.47 |  |  | 2010 | 3.84 | 2.23 | 4.13 |
| O=c1cc(-c2ccccc2)[nH]c2ccccc12 | 639 |  | 4.09 | > 62.1 | 941 | > 100 | 881 | > 100 | 4.18 | > 100 | 481 | > 100 | 468 | > 100 | 0.573 | > 100 | 996 | 9.68 | > 79.3 | > 100 |
| O=C(NCCCCCCNC(=O)n1cc(F)c(=O)[nH]c1=O)NCCCOCCOCCOCCOCCOCCOCCOCCOCCOCCOCCOCCOCCOCCOCCOCCOCCOCCOCCOCCOCCOCCCNC(=O)C(O)C(O)C(O)C(O)CO (configuration not stated) |  | > 100 |  | > 100 |  | > 100 |  | > 100 |  | > 100 |  | > 100 |  | > 100 |  | > 100 |  | > 100 |  | > 100 |
| CCc1nccc2c1nc(-c1nonc1N)n2CC | > 25000 | > 25 | > 25 | > 25 | > 25000 | > 25 | > 25000 | > 25 | > 25 | > 25 | > 25000 | > 25 | > 25000 | > 25 | > 25 | > 25 | 13600 | > 25 | > 25 | > 25 |
| O=C1CC(c2ccc(O)cc2)C2(O1)C(=O)OC(C(O)CO)C2O (configuration not stated) |  |  |  | > 100 |  | > 100 |  | > 100 |  | > 100 |  | > 100 |  | > 100 |  | > 100 |  | > 100 |  | > 100 |
| CCCCCCCCN=C(N)c1ccc(N2CCN(c3ccc(C(N)=NCCCCCCCC)cc3)CC2)cc1 | 2060 | 8.79 | 3.37 | > 50 | 1760 | 6.68 | 2160 | 14.6 | 1.49 | 6.65 | 1790 | 7.2 | 1630 | 13.5 | 1.45 | 6.33 | 1130 | 4.49 | 4.03 | 13.2 |
| COc1ccc2sc3c(NCCCN(C)C)nc4ccccc4c3c(=O)c2c1 | 1700 | 3.26 | 1.38 | 2.8 | 1780 | 3.33 | 1640 | 3.06 | 1.7 | 3.62 | 1360 | 2.7 | 1860 | 4.24 | 1.53 | 3.27 | 1220 | 2.53 | 1.81 | 3.49 |
| CC[C@@H](C(=O)O)C1CC[C@H](C)C([C@@H](C)[C@H](O)[C@H](C)C(=O)[C@H](CC)C2O[C@]3(C=C[C@@H](O)[C@]4(CC[C@@](C)(C5CC[C@](O)(CC)[C@H](C)O5)O4)O3)[C@H](C)C[C@@H]2C)O1 (some centres not stated) | 130 | 7.52 | 0.863 | 5.51 | 1290 | 2.82 | 323 | 3.65 | 1.21 | 37.4 | 446 | 21.8 | 371 | 16 | 0.115 | 10.2 | 289 | 3.76 | 0.293 | 5.88 |
| COc1ccc(/C(C#N)=C/c2ccccc2OC)cc1 | 14500 | > 100 | 7.02 | > 100 | 4800 | 60.9 | 30300 | > 100 | 25.2 | > 100 | 6250 | > 100 | 10000 | > 100 | 4.63 | 78.4 | 5400 | 27.4 | 12.4 | > 100 |
| COc1ccc2c(c1)/C(=C\c1c(C)nc3sccn13)C(=O)N2 | 39.2 | 8.21 | < 0.01 | 26.2 | < 49.5 | > 100 | 525 | > 100 | 0.306 |  | < 46.8 | > 27.1 | 1980 | > 67.2 |  | > 100 | 722 | > 90.4 |  |  |
| COc1ccc(/C=C2\CCCC3=C2N=C2SC(C)=NN2C3c2ccc(OC)c(OC)c2)cc1OC (configuration not stated) | > 100000 | > 100 | 25.1 | > 100 | 5730 | > 100 | 39200 | > 100 | 6.31 | > 100 | 3490 | 19.4 | 4570 | > 100 | 26.2 | > 100 | 3880 | 18.2 | 9.17 | > 100 |
| COc1ccc(/C=C(/C#N)C(N)=O)cc1OC |  |  |  | > 100 |  | > 100 |  | > 100 |  | > 100 |  | > 100 |  | > 100 |  | > 100 |  | > 100 |  | > 100 |
| Cn1cccc1-c1cc(-c2cccs2)nc(N)c1C#N | > 100000 | > 100 | > 100 | > 100 |  |  | > 100000 | > 100 | > 100 | > 100 | > 100000 | > 100 | > 100000 | > 100 | > 100 | > 100 | > 100000 | > 100 | > 100 | > 100 |
| CCCCC(CC)CN=C(N)NC(N)=NCCCCCCN=C(N)NC(N)=NCC(CC)CCCC (configuration not stated) |  |  | 1.85 | 3.65 | 2490 | 6.03 |  |  | 2.08 | 5.19 | 2980 | 16.5 | 2210 | 4.9 |  |  | 2270 | 6.43 | 2.62 | 8.73 |
| COc1ccc(OC)c(/C=C2\SC(=S)NC2=O)c1 |  |  | 14.2 | 43.2 | 30700 | > 100 | 79800 | > 100 | 30.5 | > 100 | 26200 | 93 | 18600 | 56.7 | 41 | > 100 | 18400 | 64.8 | 19.8 | 61.5 |
| CCOC(=O)c1cc(NS(=O)(=O)c2ccccc2)cc(C(=O)OCC)c1 | > 100000 | > 100 | > 100 | > 100 |  |  | > 100000 | > 100 |  |  | > 100000 | > 100 | > 100000 | > 100 | > 100 | > 100 | > 100000 | > 100 | > 100 | > 100 |
